Consider four compounds from US20250263396A1, “CRYSTALLINE FORMS OF 3-(5-(2-HYDROXY-2- METHYLPROPOXY)-6-METHYPYRAZIN-2-YL)-1H-INDOLE-7-CARBONITRILE” (NIDO BIOSCIENCES, INC., priority 2024, published 2025).

Data set [1] can be described thus: Form change on heating, dehydration or desolvation (TGA, DSC, variable temperature XRPD). The note with it: heating to 140° C. by TGA and cooled to room temperature. Type of data set: physicochemical.
Data set [2] can be described thus: Competitive equilibration experiments.
Experimental: Relative stability of the anhydrate Forms A, C, H and J was investigated with competitive equilibration experiments.
Relative stability of the anhydrates Forms C, K and L was investigated with competitive equilibration experiments.
Relative stability of the anhydrates Form C and Form P was systematically investigated with competitive equilibration experiments.
About 5 mg of Form C and about 5 mg of Form P were added to 0.25 mL of saturated solutions of selected solvents. Obtained suspensions were stirred at 25° C., 50° C. and 70° C. for 4 days, respectively. Solid parts (wet cakes) were isolated by centrifugation filtration and investigated by XRPD.
About 10 mg of Form C and about 10 mg of Form P were added to 0.5 mL saturated solutions of selected solvents. Obtained suspensions were stirred at 80/C and 90 C, respectively. Solid parts (wet cakes) were be isolated by centrifugation filtration and investigated by XRPD.
About 3 mg of the Form P and 3 mg of the mixture of Form P and Form J were added to 0.2 mL of saturated solutions of selected solvents. Obtained suspensions were stirred at 25° C., 50° C. and 70° C. for 4 days, respectively. Solid parts (wet cakes) were isolated by centrifugation filtration and investigated by XRPD.
About 3 mg of Form P and 3 mg of the physical mixture of Form P and Form R were added to 0.2 mL of saturated solutions of 2-MeTHF. Obtained suspensions were stirred at 25° C., 50° C. and 70° C., respectively. Solid parts (wet cakes) were isolated by centrifugation filtration and investigated by XRPD.
About 1.5 mg of Form P, 1.5 mg of Form X and 1.5 mg Form Y were added to 0.15 mL saturated solution of 2-MeTHF. Obtained suspensions were stirred at 25° C., 50° C. and 70° C., respectively. Solid parts (wet cake) were isolated by centrifugation filtration and investigated by XRPD.

Take `Cc1nc(-c2c[nH]c3c(C#N)cccc23)cnc1OCC(C)(C)O` [Form I, 3-(5-(2-hydroxy-2-methylpropoxy)-6-methylpyrazin-2-yl)-1H-indole-7-carbonitrile]: the Form after heating entry in data set [1] was “converted to physical mixture of Form C, Form N and an unknown peak”.
Regarding `Cc1nc(-c2c[nH]c3c(C#N)cccc23)cnc1OCC(C)(C)O` [Form C and Form P, 3-(5-(2-hydroxy-2-methylpropoxy)-6-methylpyrazin-2-yl)-1H-indole-7-carbonitrile], the “XRPD after competitive equilibration” value in data set [2] (1,4-Dioxane, 25° C. for 4 days) is “Form D”; in data set [2] (1,4-Dioxane, 50° C. for 4 days) it was “Form D”; in data set [2] (1,4-Dioxane, 70° C. for 4 days) it was “Form D”; in data set [2] (2-MeTHF, 25° C. for 4 days), “Form P”; in data set [2] (2-MeTHF, 50° C. for 4 days), “Form P”; in data set [2] (2-MeTHF, 70° C. for 4 days) it was “Form P”. Besides, the “XRPD after competitive equilibration” value is given as “Form P” in data set [2] (Acetone, 25° C. for 4 days); “Form P” in data set [2] (Acetone, 50° C. for 4 days); “Form P” in data set [2] (Acetone, 70° C. for 4 days); “Form P” in data set [2] (Acetone/water (v:v = 36:64) a.w = 0.9, 25° C. for 4 days); “Form P” in data set [2] (Acetone/water (v:v = 36:64) a.w = 0.9, 50° C. for 4 days); “Form P” in data set [2] (Acetone/water (v:v = 36:64) a.w = 0.9, 70° C. for 4 days). Moreover, the “XRPD after competitive equilibration” value in data set [2] (Acetone/water (v:v = 76.5:23.5) a.w = 0.7, 25° C. for 4 days) is recorded as “Form P”; in data set [2] (Acetone/water (v:v = 76.5:23.5) a.w = 0.7, 50° C. for 4 days), “Form P”; in data set [2] (Acetone/water (v:v = 76.5:23.5) a.w = 0.7, 70° C. for 4 days), “Form P”; in data set [2] (Acetone/water (v:v = 95.2:4.8) a.w = 0.4, 25° C. for 4 days) it was “Form P”; in data set [2] (Acetone/water (v:v = 95.2:4.8) a.w = 0.4, 50° C. for 4 days), “Form P”; in data set [2] (Acetone/water (v:v = 95.2:4.8) a.w = 0.4, 70° C. for 4 days) it was “Form P”. For the same compound, the “XRPD after competitive equilibration” value in data set [2] (Acetonitrile, 25° C. for 4 days) is “Form P”; in data set [2] (Acetonitrile, 50° C. for 4 days) it was “Form P”; in data set [2] (Acetonitrile, 70° C. for 4 days) it was “Form P”; in data set [2] (DCM, 25° C. for 4 days), “Form P”; in data set [2] (DMSO/water (v:v = 1:5 a.w. = 0.94), 80° C. for about 6 d) it was “Form P”; in data set [2] (DMSO/water (v:v = 1:5 a.w. = 0.94), 90° C. for about 8 d), “Form C (majority) +”. Also, the “XRPD after competitive equilibration” value in data set [2] (DMSO/water (v:v = 1:5 a.w. = 0.94), 90° C. for about 18 d) is given as “Form C”; in data set [2] (Ethanol, 25° C. for 4 days) it was “Form P”; in data set [2] (Ethanol, 50° C. for 4 days) it was “Form P”; in data set [2] (Ethanol, 70° C. for 4 days), “Form P”; in data set [2] (Ethyl acetate, 25° C. for 4 days), “Form P”; in data set [2] (Ethyl acetate, 50° C. for 4 days) it was “Form P”. In addition, the “XRPD after competitive equilibration” value in data set [2] (Ethyl acetate, 70° C. for 4 days) is listed as “Form P”; in data set [2] (Heptane, 25° C. for 4 days) it was “Form P”; in data set [2] (Heptane, 50° C. for 4 days), “Form P”; in data set [2] (Heptane, 70° C. for 4 days), “Form P”; in data set [2] (Heptane, 90° C. for about 8 d) it was “Form C + Form P”; in data set [2] (Heptane, 90° C. for about 18 d) it was “Form C + Form P”. Further, the “XRPD after competitive equilibration” value in data set [2] (Isopropyl acetate, 25° C. for 4 days) is “Form P”; in data set [2] (Isopropyl acetate, 50° C. for 4 days), “Form P”; in data set [2] (Isopropyl acetate, 70° C. for 4 days) it was “Form P”; in data set [2] (MEK, 25° C. for 4 days), “Form P”; in data set [2] (MEK, 50° C. for 4 days), “Form P”; in data set [2] (MEK, 70° C. for 4 days) it was “Form P”. For the same compound, the “XRPD after competitive equilibration” value in data set [2] (NMP, 25° C. for 4 days) was “Form Q, NMP”; in data set [2] (THF, 25° C. for 4 days) it was “Form P”; in data set [2] (THF, 50° C. for 4 days), “Form P”; in data set [2] (Toluene, 90° C. for about 8 d), “Form C”; in data set [2] (Water, 25° C. for 4 days), “Form P”; in data set [2] (Water, 50° C. for 4 days) it was “Form P”. Further, the “XRPD after competitive equilibration” value in data set [2] (Water, 70° C. for 4 days) is “Form P”; in data set [2] (Water, 90° C. for about 8 d), “Form C + Form P”; in data set [2] (Water, 90° C. for about 18 d), “Form P”.
For `Cc1nc(-c2c[nH]c3c(C#N)cccc23)cnc1OCC(C)(C)O` [Form A, 3-(5-(2-hydroxy-2-methylpropoxy)-6-methylpyrazin-2-yl)-1H-indole-7-carbonitrile], the “Form conversion (relative stability)” value in data set [2] (at both 25° C. and 50° C.) is on record as “converts to Form C”.
With `Cc1nc(-c2c[nH]c3c(C#N)cccc23)cnc1OCC(C)(C)O` [Form X, 3-(5-(2-hydroxy-2-methylpropoxy)-6-methylpyrazin-2-yl)-1H-indole-7-carbonitrile], the “Form conversion (relative stability)” value in data set [2] (at 25° C., 50° C. and 70° C.) is reported as “converts to Form P”.
